What was measured:
Assay type in all cases: cell-based
NK1R F264Y M291F [1] = target: T1, NK1R F264Y M291F (Homo sapiens, UniProt P25103, F264Y/M291F); test: BRET-based cAMP assay (Gs); details: COS-7, COS7 cells, CAMYEL BRET sensor, four-parameter fit, mean ± SEM of three independent experiments
T1 construct: host or cells: COS7
Procedure: (§1) COS7 cells were tested monthly for mycoplasma and kept negative. COS7 cells were plated in either clear, white, or white with clear bottom 96-well plates that were coated with poly-D-lysine (Sigma-Aldrich) 30 min prior to cell seeding (20,000 cells/well). The following day plates were transiently transfected using calcium precipitation with 200 ng/well DNA in a culture medium with the addition of 100μM (final concentration) chloroquine. Transfection was stopped 5 h later with the addition of a fresh maintenance medium. Fig. […] The intracellular level of cAMP was monitored in real-time using BRET. This was achieved by implementing a construct consisting of a cAMP binding protein (exchange protein activated by cAMP [EPAC]) which has been flanked by a BRET pair consisting of Rluc and yellow fluorescent protein. This construct is called CAMYEL (cAMP sensor using yellow fluorescent protein-EPAC-Rluc) and enables cAMP production to be sensed as EPAC changes conformation in response to increasing levels of cAMP, ultimately resulting in a loss of BRET signal. […] The BRET signal was calculated as the ratio of emission intensity at 535 nm (citrine) to the emission intensity at 475 nm (luciferase). […] All dose-response curves have been calculated using Prism 10 software (GraphPad Software, www.graphpad.com) nonlinear regression with four parameters. […]

NK1R M291F [2] = target: T2, NK1R M291F (Homo sapiens, UniProt P25103, M291F); test: BRET-based cAMP assay (Gs); details: COS-7, COS7 cells, CAMYEL BRET sensor, four-parameter fit, mean ± SEM of three independent experiments
T2 construct: host or cells: COS7
T2 sequence (P25103 whole entry M291F): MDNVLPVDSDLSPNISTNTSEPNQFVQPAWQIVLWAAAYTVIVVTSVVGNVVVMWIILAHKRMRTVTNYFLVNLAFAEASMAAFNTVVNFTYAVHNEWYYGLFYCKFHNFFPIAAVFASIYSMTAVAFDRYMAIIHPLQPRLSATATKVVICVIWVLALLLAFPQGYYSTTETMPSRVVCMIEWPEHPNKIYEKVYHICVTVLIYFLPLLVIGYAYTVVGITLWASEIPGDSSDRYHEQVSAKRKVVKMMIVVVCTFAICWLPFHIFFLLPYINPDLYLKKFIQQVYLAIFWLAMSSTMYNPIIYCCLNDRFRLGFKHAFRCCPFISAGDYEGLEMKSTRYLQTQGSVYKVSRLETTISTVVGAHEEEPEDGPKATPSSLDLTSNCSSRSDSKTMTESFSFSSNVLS
Procedure: as §1

NK1R F264Y = target: T3, NK1R F264Y (Homo sapiens, UniProt P25103, F264Y); test: IP3 accumulation assay (Gq); details: COS-7, COS7 cells, [3H]inositol, 10 mM LiCl, 150 min 37 °C, mean ± SEM of three independent experiments
T3 construct: host or cells: COS7
T3 sequence (P25103 whole entry F264Y): as the sequence (P25103 whole entry M291F) above, with F264Y, F291M counted along it
Procedure: (§2) COS7 cells were tested monthly for mycoplasma and kept negative. COS7 cells were plated in either clear, white, or white with clear bottom 96-well plates that were coated with poly-D-lysine (Sigma-Aldrich) 30 min prior to cell seeding (20,000 cells/well). The following day plates were transiently transfected using calcium precipitation with 200 ng/well DNA in a culture medium with the addition of 100μM (final concentration) chloroquine. Transfection was stopped 5 h later with the addition of a fresh maintenance medium. Fig. […] COS7 cells seeded in clear 96-well plates were incubated with 0.5 μCi/ml myo [3H]inositol (Perkin Elmer) in 100 μl growth medium overnight following the transfection. The subsequent day cells were washed twice with 200 μl/well HBSS (GIBCO, Life Technologies) and preincubated for 5 min at 37 °C with 100 μl/well HBSS buffer supplemented with 10 mM LiCl. Ligand addition was followed by 150 min incubation at 37 °C. To stop ligand incubation, cells were lysed with 40 μl 10 mM formic acid followed by 30 min incubation on ice. Thirty five microliters of the lysate was transferred to white 96-well plates together with 60 μl of 1:8 diluted YSi SPA scintillation beads (Perkin Elmer). Plates were sealed and vigorously shaken for 15 min, followed by 5 min centrifugation at 1500 rpm. Measurements (scintillation) were recorded on a Microbeta (PerkinElmer) after a 4 h delay and determinations were made in duplicates. All dose-response curves have been calculated using Prism 10 software (GraphPad Software, www.graphpad.com) nonlinear regression with four parameters. All data are shown as mean ± SEM unless stated otherwise and consist of two technical replicates from three biological replicates.

NK1R F264Y M291F [3] = target: T1, NK1R F264Y M291F; test: IP3 accumulation assay (Gq); details: COS-7, COS7 cells, [3H]inositol, 10 mM LiCl, 150 min 37 °C, mean ± SEM of three independent experiments
Procedure: as §2

NK1R M291F [4] = target: T2, NK1R M291F; test: IP3 accumulation assay (Gq); details: COS-7, COS7 cells, [3H]inositol, 10 mM LiCl, 150 min 37 °C, mean ± SEM of three independent experiments
Procedure: as §2

T1 sequence (P25103 whole entry F264Y/M291F): as the sequence (P25103 whole entry M291F) above, with F264Y counted along it

- Emax (NK1R F264Y M291F [1]): 125%
- Emax (NK1R M291F [2]): 99.9%
- Emax (NK1R F264Y): 105 ± 6.3%
- Emax (NK1R F264Y M291F [3]): 102 ± 11%
- Emax (NK1R M291F [4]): 102 ± 12.7%
SMILES: CSCC[C@H](NC(=O)[C@H](CC(C)C)NC(=O)CNC(=O)[C@@H](NC(=O)[C@H](Cc1ccccc1)NC(=O)[C@H](CO)NC(=O)[C@H](CC(=O)O)NC(=O)[C@@H](NC(=O)[C@H](CCCCN)NC(=O)[C@@H](N)Cc1c[nH]cn1)[C@@H](C)O)C(C)C)C(N)=O [NKA, neurokinin A]

Source: paper PMC11625327, “Molecular determinants of neuropeptide-mediated activation mechanisms in tachykinin NK1 and NK2 receptors” (The Journal of Biological Chemistry, 2024)
